Where “and” joins values, the source holds several entries; their conditions need not be identical. Equal entries are not always repeated.

The assay deals with Normal human fibroblasts. Nature of the assay: Production of hyaluronic acid on human fibroblast cultures. The format is cell-based. The settings on record: EGF 10 ng/ml (positive reference), 72-hour incubation. Here is the method: B)—Evaluation of the Moisturizing Effect of the Compositions According to the Invention—Measurement of the Production of Hyaluronic Acid on Human Fibroblast Cultures:
Normal human fibroblasts are seeded and cultured in 96-well plates in 10% FCS (fetal calf serum) culture medium, at 37° C. in a humid atmosphere containing 5% CO2. […] Each condition is performed in n=4. At the end of a 72-hour incubation, the amount of hyaluronic acid excreted into the culture supernatant is measured using a specific assay kit (Hyaluronan Duo Set Assay Development Kit—Biotechne); and the amount of protein present in the cell lawns is measured using the BC Assay kit (Interchim). The amount of hyaluronic acid assayed is then expressed relative to the amount of protein per well. Means and standard deviations are calculated per condition and the level of hyaluronic acid production is evaluated by comparing the test conditions with the control condition (untreated cells).

As for “EGF: epidermal growth factor, the positive reference for the model”, for the setting “culture supernatant, n=4”, the “Amount of hyaluronic acid produced, Mean” value was 32.29 ng/μg protein and 25.28 ng/μg protein. Moreover, the “Amount of hyaluronic acid produced, Difference relative to the control” value (vs untreated cells) is given as 164%.

For the origin of these results see patent US11433014B2, “Polyol polyrhamnosides, process for the preparation thereof, and cosmetic and/or pharmaceutical composition comprising same” (SOCIETE D'EXPLOITATION DE PRODUITS POUR LES INDUSTRIES …, priority 2017, dated 2022).
